27 compounds from ChEMBL document CHEMBL5214888, “The new opportunities in medicinal chemistry of fourth-generation EGFR inhibitors to overcome C797S mutation” (Eur J Med Chem, 2021) can be followed below.

The target of data set [1] is T1, Epidermal growth factor receptor (Homo sapiens, UniProt P00533, C797S/EX19DEL/T790M). The data set can be described thus: Inhibition of human EGFR del19/T790M/C797S mutant using ATP-labelled peptide substrate by HTRF assay. (Time-resolved FRET reads energy transfer from a long-lived donor to a nearby acceptor.)
In data set [2] the target is T2, Epidermal growth factor receptor (Homo sapiens, UniProt P00533). The data set can be described thus: Inhibition of wild type EGFR (unknown origin).
The target of data set [3] is T3, Epidermal growth factor receptor (Homo sapiens, UniProt P00533, L858R/T790M). As to the kind of experiment: Inhibition of EGFR L858R/T790M mutant (unknown origin).
The target in data set [4] is T4, Epidermal growth factor receptor (Homo sapiens, UniProt P00533, C797S/L858R/T790M). As to the kind of experiment: Inhibition of EGFR L858R/T790M/C797S mutant (unknown origin).
Data set [5] deals with T1, Epidermal growth factor receptor. As to the kind of experiment: Inhibition of human EGFR del19/T790M/C797S mutant assessed as enzyme remaining activity using poly-Glu-Tyr peptide substrate incubated for 2 hrs in presence of [gamma-33P]ATP by radiometric kinase assay.
Data set [6] concerns BaF3. As to the kind of experiment: Cytotoxicity against mouse BaF3 cells expressing human EGFR C797S/T790M/del19 mutant assessed as inhibition of in cell viability measured after 72 hrs by CellTiter-Glo assay. In kind it is functional, cell-based. The following applies: BaF3, 72 h. For orientation: ATP-based viability assays read luminescence as a measure of living cells.
Data set [7] concerns BaF3. The data set can be described thus: Cytotoxicity against mouse BaF3 cells expressing human EGFR C797S/del19 mutant assessed as inhibition of in cell viability measured after 72 hrs by CellTiter-Glo assay. Format: functional, cell-based. The following applies: BaF3, 72 h.
In data set [8] the test system is BaF3. The data set can be described thus: cells. The following applies: Mus musculus.
Data set [9] deals with BaF3. The data set can be described thus: cells. The settings on record: Mus musculus. The source holds these as a separate data set.
For data set [10], the target named is T2, Epidermal growth factor receptor. The data set can be described thus: Inhibition of human wild type GST-tagged EGFR expressed in Sf9 cells assessed as substrate phosphorylation using TK-peptide as substrate incubated for 25 mins by HTRF assay.
Data set [11] has as its target T3, Epidermal growth factor receptor. The data set can be described thus: Inhibition of human GST-tagged EGFR L858R/T790M mutant expressed in Sf9 cells assessed as substrate phosphorylation using TK-peptide as substrate incubated for 20 mins by HTRF assay.
Data set [12] addresses T4, Epidermal growth factor receptor. As to the kind of experiment: Inhibition of human GST-tagged EGFR L858R/T790M/C797S mutant expressed in Sf9 cells assessed as substrate phosphorylation using TK-peptide as substrate incubated for 10 mins by HTRF assay.
Data set [13] deals with BaF3. As to the kind of experiment: cells. The following applies: Mus musculus, BaF3, 72 h.
Data set [14] has as its system BaF3. As to the kind of experiment: Antiproliferative activity against mouse BaF3 cells harboring EGFR del19/T790M/C797S triple mutant assessed as inhibition of cell proliferation by celltiter-Glo assay. Format: functional, cell-based.
Data set [15] concerns the target T1, Epidermal growth factor receptor. The data set can be described thus: Inhibition of EGFR del19/T790M/C797S triple mutant (unknown origin) phosphorylation expressed in mouse BaF3 cells by fluorescence based microplate reader analysis. In kind it is cell-based.
Data set [16] is described as follows: Oral bioavailability in C57Bl/6 mouse plasma at 20 mg/kg and measured upto 8 hrs by LC-MS/MS analysis. Format: ADME, organism-based.
Data set [17] is described as follows: Cmax in C57Bl/6 mouse plasma at 20 mg/kg, po and measured upto 8 hrs by LC-MS/MS analysis. In kind it is ADME, organism-based. More on the design: dose 20 mg/kg, time < 8 hrs, route po.
A short description of data set [18]: AUClast in C57Bl/6 mouse at 3 mg/kg, iv and measured upto 8 hrs by LC-MS/MS analysis. Format: ADME, organism-based. More on the design: dose 3 mg/kg, time < 8 hrs, route iv. The following applies: in vivo.
Data set [19] can be described thus: Half life in C57Bl/6 mouse at 3 mg/kg, iv and measured upto 8 hrs by LC-MS/MS analysis. Format: ADME, organism-based. The following applies: in vivo.
Data set [20] concerns PC-9. The data set can be described thus: Antiproliferative activity against human PC-9 cells assessed as inhibition of cell proliferation. Format: functional, cell-based.
The test system of another data set is A549. The data set can be described thus: Antiproliferative activity against human A549 assessed as inhibition of cell proliferation. Format: functional, cell-based.
For data set [21], the system named is PC-9. As to the kind of experiment: Antiproliferative activity against human PC-9 cells harboring EGFR del19/T790M/C797S mutant assessed as inhibition of cell proliferation. In kind it is functional, cell-based.
The test system of data set [22] is PC-9. The data set can be described thus: Antiproliferative activity against human PC-9 cells harboring EGFR L858R/T790M/C797S mutant assessed as inhibition of cell proliferation. In kind it is functional, cell-based.

T3 sequence (P00533 25-1210 T790M/L858R limits assumed): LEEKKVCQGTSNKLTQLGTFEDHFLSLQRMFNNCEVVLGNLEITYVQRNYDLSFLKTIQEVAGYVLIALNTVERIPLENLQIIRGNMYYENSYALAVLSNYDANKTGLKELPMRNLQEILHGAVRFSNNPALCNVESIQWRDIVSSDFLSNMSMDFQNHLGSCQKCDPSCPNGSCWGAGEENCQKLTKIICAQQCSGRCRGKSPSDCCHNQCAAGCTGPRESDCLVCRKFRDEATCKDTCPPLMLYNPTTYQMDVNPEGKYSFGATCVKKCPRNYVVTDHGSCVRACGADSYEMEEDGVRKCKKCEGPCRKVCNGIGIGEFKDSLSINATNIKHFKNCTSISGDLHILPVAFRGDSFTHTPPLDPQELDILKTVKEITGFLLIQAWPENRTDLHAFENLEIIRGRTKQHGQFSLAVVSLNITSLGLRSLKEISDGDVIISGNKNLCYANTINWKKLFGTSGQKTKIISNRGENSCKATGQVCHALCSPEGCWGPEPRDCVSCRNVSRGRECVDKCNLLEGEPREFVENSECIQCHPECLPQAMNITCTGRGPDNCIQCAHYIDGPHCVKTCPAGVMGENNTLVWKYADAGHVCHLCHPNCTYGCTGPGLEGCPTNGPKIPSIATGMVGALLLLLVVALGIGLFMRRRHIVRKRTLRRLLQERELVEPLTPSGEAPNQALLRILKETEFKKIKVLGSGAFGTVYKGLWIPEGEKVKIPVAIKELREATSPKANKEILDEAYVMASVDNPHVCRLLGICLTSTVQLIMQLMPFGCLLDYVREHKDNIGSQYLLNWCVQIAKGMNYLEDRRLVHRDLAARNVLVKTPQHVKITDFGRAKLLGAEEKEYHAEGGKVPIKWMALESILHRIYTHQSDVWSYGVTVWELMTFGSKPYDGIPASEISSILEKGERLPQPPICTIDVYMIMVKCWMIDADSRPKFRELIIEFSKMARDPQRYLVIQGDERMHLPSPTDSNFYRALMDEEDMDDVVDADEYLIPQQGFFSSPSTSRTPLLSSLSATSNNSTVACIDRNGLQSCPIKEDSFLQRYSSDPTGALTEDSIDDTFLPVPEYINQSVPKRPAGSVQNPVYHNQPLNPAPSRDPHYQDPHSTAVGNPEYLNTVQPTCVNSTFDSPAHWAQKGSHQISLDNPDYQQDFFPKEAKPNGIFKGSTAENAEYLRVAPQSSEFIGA
T4 sequence (P00533 25-1210 T790M/C797S/L858R limits assumed): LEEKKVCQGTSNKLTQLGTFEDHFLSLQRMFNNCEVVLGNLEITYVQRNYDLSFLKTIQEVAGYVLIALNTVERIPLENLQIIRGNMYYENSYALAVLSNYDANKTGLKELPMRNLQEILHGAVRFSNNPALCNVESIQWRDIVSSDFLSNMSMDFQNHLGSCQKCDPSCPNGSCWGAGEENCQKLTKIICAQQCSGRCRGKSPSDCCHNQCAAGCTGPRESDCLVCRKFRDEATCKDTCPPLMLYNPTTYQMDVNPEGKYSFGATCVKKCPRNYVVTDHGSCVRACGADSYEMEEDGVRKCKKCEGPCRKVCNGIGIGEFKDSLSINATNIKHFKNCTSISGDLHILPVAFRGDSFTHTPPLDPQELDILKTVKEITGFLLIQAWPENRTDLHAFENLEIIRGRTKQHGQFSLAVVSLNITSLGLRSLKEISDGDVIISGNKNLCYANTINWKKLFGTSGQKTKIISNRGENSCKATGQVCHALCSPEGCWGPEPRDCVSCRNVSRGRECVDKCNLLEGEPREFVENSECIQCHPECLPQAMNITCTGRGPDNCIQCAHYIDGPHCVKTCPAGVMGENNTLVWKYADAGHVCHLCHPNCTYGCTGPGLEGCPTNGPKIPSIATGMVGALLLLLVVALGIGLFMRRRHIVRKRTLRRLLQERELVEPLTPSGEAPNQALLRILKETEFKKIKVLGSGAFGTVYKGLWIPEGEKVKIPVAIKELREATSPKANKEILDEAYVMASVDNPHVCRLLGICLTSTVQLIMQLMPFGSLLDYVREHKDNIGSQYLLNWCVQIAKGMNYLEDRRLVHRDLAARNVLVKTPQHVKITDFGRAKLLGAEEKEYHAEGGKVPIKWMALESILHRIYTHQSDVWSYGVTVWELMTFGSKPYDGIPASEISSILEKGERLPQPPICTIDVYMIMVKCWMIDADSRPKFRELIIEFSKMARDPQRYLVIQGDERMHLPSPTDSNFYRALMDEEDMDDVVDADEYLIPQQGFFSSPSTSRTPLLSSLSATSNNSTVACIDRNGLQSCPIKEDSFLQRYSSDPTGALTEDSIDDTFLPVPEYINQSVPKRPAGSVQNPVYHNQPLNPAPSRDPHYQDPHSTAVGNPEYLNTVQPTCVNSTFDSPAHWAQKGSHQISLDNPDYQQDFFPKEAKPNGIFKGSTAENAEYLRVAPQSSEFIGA
T1 sequence (P00533 whole entry, looked up, stated change not applied): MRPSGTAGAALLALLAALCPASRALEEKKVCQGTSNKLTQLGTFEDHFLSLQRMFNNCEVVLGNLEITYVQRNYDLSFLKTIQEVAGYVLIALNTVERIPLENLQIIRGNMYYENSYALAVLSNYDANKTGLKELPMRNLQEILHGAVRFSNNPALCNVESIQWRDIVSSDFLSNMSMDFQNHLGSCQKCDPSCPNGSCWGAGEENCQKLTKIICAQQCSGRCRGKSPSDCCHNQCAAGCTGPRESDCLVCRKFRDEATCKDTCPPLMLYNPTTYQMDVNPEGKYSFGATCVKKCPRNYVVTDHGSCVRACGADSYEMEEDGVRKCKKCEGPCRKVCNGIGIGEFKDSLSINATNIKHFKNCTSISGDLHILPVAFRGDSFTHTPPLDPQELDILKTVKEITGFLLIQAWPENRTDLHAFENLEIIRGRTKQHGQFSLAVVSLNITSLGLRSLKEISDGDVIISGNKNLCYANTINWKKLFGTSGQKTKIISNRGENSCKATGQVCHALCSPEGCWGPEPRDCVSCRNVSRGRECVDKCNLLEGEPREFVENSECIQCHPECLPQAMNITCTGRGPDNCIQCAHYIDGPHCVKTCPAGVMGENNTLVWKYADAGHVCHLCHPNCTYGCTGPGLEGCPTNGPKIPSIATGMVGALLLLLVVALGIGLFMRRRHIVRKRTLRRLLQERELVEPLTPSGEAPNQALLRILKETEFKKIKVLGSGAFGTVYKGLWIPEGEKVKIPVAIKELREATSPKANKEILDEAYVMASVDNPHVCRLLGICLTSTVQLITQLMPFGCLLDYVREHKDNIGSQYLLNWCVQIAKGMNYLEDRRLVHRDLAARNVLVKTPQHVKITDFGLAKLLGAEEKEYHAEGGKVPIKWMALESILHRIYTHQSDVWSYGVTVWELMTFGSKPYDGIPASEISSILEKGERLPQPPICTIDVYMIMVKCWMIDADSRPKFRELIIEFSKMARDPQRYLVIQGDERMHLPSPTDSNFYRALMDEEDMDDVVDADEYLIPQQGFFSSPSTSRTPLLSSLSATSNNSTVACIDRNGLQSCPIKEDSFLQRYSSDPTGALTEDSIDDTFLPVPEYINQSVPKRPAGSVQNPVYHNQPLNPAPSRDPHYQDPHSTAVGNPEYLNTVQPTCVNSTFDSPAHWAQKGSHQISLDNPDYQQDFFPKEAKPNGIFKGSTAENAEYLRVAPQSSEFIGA
T2 sequence (P00533 whole entry): as the sequence (P00533 whole entry, looked up, stated change not applied) above

`COc1cc(N2CCC(N3CCN(C)CC3)CC2)ccc1Nc1ncc(Cl)c(Nc2ccccc2NS(C)(=O)=O)n1` displayed an IC50 in data set [1] of 0.2 nM.
Consider `OCCc1ccc(-c2nc(-c3ccc(F)cc3)c(-c3ccnc4c3CC(c3ccccc3)N4)[nH]2)cc1` (centres undefined), for which the IC50 in [2] was less than 0.3 nM; in [3] it was 12.5 nM; in [4], 7.64 nM.
Regarding `Oc1ccccc1-c1nc(NCc2cccnc2)c2ccccc2n1`, the IC50 in [5] is 149 nM.
Take `COc1cc(N2CCC(N)CC2)ccc1Nc1ncc(Cl)c(-c2c[nH]c3ccccc23)n1`: the IC50 in the data set on BaF3 [6] amounted to 132 nM; in the data set with BaF3 [7] it was 74.4 nM.
On to `CC(=O)N[C@H]1CC[C@@H](N2C(=O)N(c3ccccc3Cl)Cc3cnc(Nc4ccc(N5CCN(C)CC5)c(C)c4)nc32)CC1`, for which the values for the IC50 in the data set on BaF3 [8] and in the data set on BaF3 [9] were 316 nM and 290 nM, respectively.
As to `CCC(=O)Nc1cccc(-c2c(-c3ccc(N4CCN(C)CC4)cc3)[nH]c3ncnc(OC(C)C)c23)c1`, the IC50 amounted to 0.1 nM in data set [10], 0.1 nM in data set [11] and 8.6 nM in data set [12].
As to `Oc1ccc(-c2nc(-c3ccc(F)cc3)c(-c3ccnc4c3CC(c3ccccc3)N4)[nH]2)cc1` (centres undefined), the IC50 in [2] is 49.2 nM; in [3] it was 916 nM.
Regarding `OCCCCc1ccc(-c2nc(-c3ccc(F)cc3)c(-c3ccnc4c3CC(c3ccccc3)N4)[nH]2)cc1` (centres undefined), the half-maximal inhibitory concentration (IC50) was less than 0.3 nM in data set [2], 8.39 nM in data set [3] and 8.83 nM in data set [4].
On to `N#Cc1ccc(O)c(-c2nc(NCc3cccnc3)c3ccccc3n2)c1`, for which, in data set [5], the IC50 came out at 17.9 nM.
As to `COc1cc(N2CCC(N3CCN(C)CC3)CC2)ccc1Nc1ncnc(Nc2ccccc2S(=O)(=O)C(C)C)n1` [ASP-3026], the values for the IC50 in the data set with BaF3 [6] and in the data set with BaF3 [7] were 1510 nM and 324 nM, respectively.
For the compound `CCC(=O)Nc1cccc(-c2c(-c3ccc(N4CCN(C)CC4)cc3)[nH]c3ncnc(OCC(C)C)c23)c1`, the IC50 is 0.2 nM in data set [10], less than 0.1 nM in data set [11] and 8.5 nM in data set [12].
With `COC(=O)c1ccc(O)c(-c2nc(NCc3cccnc3)c3ccccc3n2)c1`, the half-maximal inhibitory concentration (IC50) in data set [5] was 46 nM.
For `COc1cc(N2CCC(N3CCN(CCO)CC3)CC2)ccc1Nc1ncc(Cl)c(Nc2ccccc2NS(C)(=O)=O)n1`, the half-maximal inhibitory concentration (IC50) in data set [1] worked out at 0.8 nM.
Compound `O=C(Nc1nccs1)C(c1ccccc1)N1Cc2ccc(-c3ccc4[nH]ccc4c3)cc2C1=O` (centres undefined) returned a concentration for half-maximal inhibition (IC50) in the data set with BaF3 [13] of 900 nM.
Turning to `COc1cc(N2CCC(N(C)C)CC2)ccc1Nc1ncc(Cl)c(Nc2ccccc2P(C)(C)=O)n1`, the IC50 in the data set with BaF3 [6] stood at 59.1 nM; with BaF3 [7], 28.4 nM.
As to `C=C(C)c1cnc(Nc2ccc(N3CCC4(CCN(C)CC4)CC3)c(C)c2)nc1Nc1ccccc1P(C)(C)=O`, the concentration for half-maximal inhibition (IC50) (with BaF3 [14]; in [15]) was less than 100 nM throughout.
As to `CN1CCC2(CC1)CCN(c1ccc(Nc3ncc(Cl)c(Nc4ccccc4P(C)(C)=O)n3)cc1Br)CC2`, the 50% inhibitory concentration (IC50) (in the data set on BaF3 [14]; in data set [15]) was less than 100 nM throughout.
With `N#Cc1ccc(O)c(-c2nc(NCc3cnccn3)c3ccccc3n2)c1`, the IC50 in data set [5] came out at 17 nM.
In the case of `CCC(=O)Nc1cccc(-c2c(-c3ccccc3)[nH]c3ncnc(OC)c23)c1`, the 50% inhibitory concentration (IC50) in [10] was determined as 1200 nM; in data set [11], 176 nM.
On to `Cc1cc(Nc2ncc(Cl)c(Nc3ccccc3S(=O)(=O)C(C)C)n2)c(OC(C)C)cc1C1CCNCC1` [CERITINIB], for which the IC50 in the data set on BaF3 [6] came out at 780 nM.
Consider `CSc1nc(-c2ccc(F)cc2)c(-c2ccnc(Nc3ccccc3)c2)[nH]1`, for which the IC50 in data set [4] is greater than 149 nM.
With `O=C(Nc1nccs1)C(c1cc(F)ccc1O)N1Cc2ccc(-c3ccc(N4CCNCC4)cc3)cc2C1=O` (centres undefined), the bioavailability in data set [16] stood at 3%. In data set [17], the concentration peaked (Cmax) at 1100 nM. The AUC(0-t) at 8 h in data set [18] was 12100 ng·h/mL. The compound further had a half-life in data set [19] of 3 h.
With `COc1ccc(-c2c3c4cc(OCCCN(C)C)c(OCCCN(C)C)cc4oc(=O)c3n3ccc4cc(O)c(OC)cc4c23)cc1O`, the IC50 stood at 658 nM with PC-9 [20], 2860 nM in the data set with A549, 740 nM with PC-9 [21] and 596 nM in the data set with PC-9 [22].
On to `CCCCOc1ncnc2[nH]c(-c3ccc(N4CCN(C)CC4)cc3)c(-c3cccc(NC(=O)CC)c3)c12`, for which the IC50 in data set [10] was less than 0.1 nM; in data set [11], less than 0.1 nM; in [12], 9.4 nM.
Consider `Cc1cc(Nc2ncc(Cl)c(Nc3ccccc3P(C)(C)=O)n2)ccc1N1CCC2(CC1)CN(C)C2`, for which the IC50 (in the data set with BaF3 [14]; in [15]) was less than 100 nM each time.
Turning to `CCC(=O)Nc1cccc(-c2c(-c3ccc(N4CCN(C)CC4)cc3)[nH]c3ncn(C4CCCCC4)c(=O)c23)c1`, the IC50 is 0.4 nM in [10], 0.4 nM in data set [11] and 22 nM in [12].
Regarding `COc1cc(N2CCC(N3CCN(C)CC3)CC2)ccc1Nc1ncc(Cl)c(Nc2ccccc2P(C)(C)=O)n1` [BRIGATINIB], in the data set with BaF3 [7], the IC50 is 39.9 nM.

In general, IC50 refers to the point on the concentration scale where inhibition reaches its midpoint. The bioavailability is dose-corrected exposure relative to a reference, in per cent. In general, Cmax refers to the peak of the concentration-time curve. For orientation: AUC(0-t) means the area under the concentration-time curve up to a stated or last time point. High values mean high exposure, low ones low exposure. Usually half-life stands for the time needed for the level to fall by half in the phase considered. Lower therefore signals fast loss.
